Data set [1] can be described thus: Single dose PK study in male Wister-Han rats. In kind it is in vivo. The following applies: 5 mg/kg oral dosing of active form. As for the experimental part: The single dose PK in Male Wister-Han Rats was performed to assess pharmacokinetic properties of tested compounds. Two groups of animals were dosed via Gavage (POE) of the respective compound. […] Blood samples were placed into tubes containing EDTA-K2 anticoagulant and centrifuged at 5000 rpm for 6 min at 4° C. to separate plasma from the samples. After centrifugation, the resulting plasma was transferred to clean tubes for bioanalysis of both prodrug and active form on LC/MS/MS. In the groups that prodrug were dosed, the concentration of prodrugs in the plasma samples was under the detection limit. The “tested compound” in Table 8 was used as the internal standard for testing the metabolite (active form) of “dose compound” in vivo. The pharmacokinetic parameters were calculated using non-compartmental module of WinNonlin® Professional 6.2. The peak concentration (Cmax) was recorded directly from experimental observations. The area under the plasma concentration-time curve (AUC0-t) was calculated using the linear trapezoidal rule up to the last detectable concentration. Cmax and AUC0-last are two critical PK parameters related to the in vivo efficacy of the tested compound. Compounds with higher Cmax and AUC0-last will lead to the better in vivo efficacy.

The next data set concerns the target T1, human TLR7 (Homo sapiens, UniProt Q9NYK1).
T1 sequence (Q9NYK1 27-1049): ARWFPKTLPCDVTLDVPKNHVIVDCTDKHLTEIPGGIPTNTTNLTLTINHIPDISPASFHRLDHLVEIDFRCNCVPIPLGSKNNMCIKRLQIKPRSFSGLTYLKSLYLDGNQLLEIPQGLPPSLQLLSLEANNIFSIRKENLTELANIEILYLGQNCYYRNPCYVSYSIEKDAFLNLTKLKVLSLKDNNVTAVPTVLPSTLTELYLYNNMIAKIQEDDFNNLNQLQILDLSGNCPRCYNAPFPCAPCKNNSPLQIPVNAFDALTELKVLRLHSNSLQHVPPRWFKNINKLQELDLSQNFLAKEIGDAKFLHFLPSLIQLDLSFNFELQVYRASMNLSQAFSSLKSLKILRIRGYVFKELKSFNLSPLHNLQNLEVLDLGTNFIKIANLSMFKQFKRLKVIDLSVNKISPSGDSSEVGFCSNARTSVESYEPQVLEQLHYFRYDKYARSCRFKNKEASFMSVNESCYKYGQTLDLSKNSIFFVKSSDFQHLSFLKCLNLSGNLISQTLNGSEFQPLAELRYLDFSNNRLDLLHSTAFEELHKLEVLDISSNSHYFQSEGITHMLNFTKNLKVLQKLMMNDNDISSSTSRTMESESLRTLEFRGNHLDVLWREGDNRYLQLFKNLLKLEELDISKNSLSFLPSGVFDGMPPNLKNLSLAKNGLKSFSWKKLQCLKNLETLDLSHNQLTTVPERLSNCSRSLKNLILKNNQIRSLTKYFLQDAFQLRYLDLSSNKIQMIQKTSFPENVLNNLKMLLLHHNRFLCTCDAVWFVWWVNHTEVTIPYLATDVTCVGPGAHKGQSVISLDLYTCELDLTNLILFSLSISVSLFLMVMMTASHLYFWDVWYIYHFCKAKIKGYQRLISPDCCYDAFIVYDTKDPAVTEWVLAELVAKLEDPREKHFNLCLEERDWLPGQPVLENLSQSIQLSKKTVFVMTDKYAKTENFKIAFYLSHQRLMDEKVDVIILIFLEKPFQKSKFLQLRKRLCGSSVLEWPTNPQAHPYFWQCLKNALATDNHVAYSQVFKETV
Put plainly: HEK293-Blue-hTLR-7 cells assay (SEAP reporter). In kind it is cell-based. The note with it: for EC50: HEK293-Blue-hTLR-7 cells, SEAP reporter, 20 hrs; for Ratio (EC50(prodrug)/EC50(active form)): EC50 of prodrug over EC50 of corresponding active form. The method, boiled down:
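HEK293-Blue-hTLR7 cells with NF-κB/AP-1-driven SEAP reporter exposed to serially diluted compound (1% DMSO) for 20 hrs at 37° C. Supernatant SEAP measured with QUANTI-Blue after 2 hrs at 37° C, absorbance 620~655 nm; agonism expressed as EC50.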

The next data set in a line: LYSA solubility study. The class given is physicochemical. The following applies: for solubility thermodynamic: phosphate buffer, pH 6.5, aqueous buffer, thermodynamic from solid. As for the experimental part:
LYSA study is used to determine the aqueous solubility of tested compounds. Samples were prepared in duplicate from 10 mM DMSO stock solution. After evaporation of DMSO with a centrifugal vacuum evaporator, the compounds were dissolved in 0.05M phosphate buffer (pH 6.5), stirred for one hour and shaken for two hours. After one night, the solutions were filtered using a microtiter filter plate. Then the filtrate and its 1/10 dilution were analyzed by HPLC-UV. […] The results were in μg/mL. In case the percentage of sample measured in solution after evaporation divided by the calculated maximum of sample amount was bigger than 80%, the solubility was reported as bigger than this value.

Setting [2] is: active form, read-out: HEK293-hTLR-7 EC50 (Active form).
Where [3] appears, read: aqueous solubility, 0.05M phosphate buffer pH 6.5.
Where [4] appears, read: male, Wister-Han, rat, plasma, po, 5 mg/kg.
The mark [5] stands for this setting: prodrug, read-out: HEK293-hTLR-7 EC50 (Prodrug).
Where [6] appears, read: 0.05M phosphate buffer pH 6.5, read-out: LYSA of Prodrugs.

In brackets after ≈: the same amount, converted by molar mass. Several values for one entry are separate records, joined by “and”; a condition that tells them apart may be missing. Equal entries are not always repeated. Where two headings read alike, the source gives them in different places.

The term Cmax denotes the maximum level reached in the sampled fluid or tissue. One may read the EC50 as the midpoint of the concentration-response curve. In general, AUC(0-t) refers to the area under the concentration-time curve up to a stated or last time point.

In the case of `CCS(=N)(=O)c1nc(N)c2[nH]c(=O)n(Cc3ccc(F)cc3)c2n1` (single isomer, unassigned) [Compound 45e-B], in data set [1], the “AUC0-last” value is 0.568 µM·h and the Cmax came out at 53.9 nM. The concentration at 0.25 h in data set [1] (read-out: Mean plasma concentration (nM), 0.25 h) came to 42.8 nM. The concentration at 0.5 h in data set [1] (read-out: Mean plasma concentration (nM), 0.5 h) was 52.2 nM. Moreover, the concentration at 1 h in data set [1] (read-out: Mean plasma concentration (nM), 1 h) stood at 37.6 nM. Also, the concentration at 2 h in data set [1] (read-out: Mean plasma concentration (nM), 2 h) is given as 24.2 nM. Besides, the concentration at 4 h in data set [1] (read-out: Mean plasma concentration (nM), 4 h) stood at 53.9 nM. In data set [1] (read-out: Mean plasma concentration (nM), 8 h), the concentration at 8 h was 29 nM. Further, in data set [1] (read-out: Mean plasma concentration (nM), 24 h), the concentration at 24 h amounted to 5.7 nM. The EC50 on human TLR7 (setting [2]) was 0.26 µM and 0.39 µM. In addition, the “LYSA of Active Forms” value in “LYSA solubility study” (setting [3]) came out at 115 µg/mL.

Regarding `CCS(=N)(=O)c1nc(N)c2[nH]c(=O)n(Cc3ccc(F)cc3)c2n1` (single isomer, unassigned) [Compound 45e-A], in data set [1] (setting [4]), the AUC(0-t) stood at 0.767 µM·h, the peak level (Cmax) was 80 nM, the concentration at 0.25 h worked out at 64.6 nM and the concentration at 0.5 h worked out at 80 nM. Further, in data set [1] (setting [4]), the concentration at 1 h turned out to be 58.1 nM, the concentration at 2 h stood at 42.5 nM, the concentration at 4 h worked out at 77.8 nM and the concentration at 8 h was 34.6 nM. The compound further came in with a concentration at 24 h in data set [1] (setting [4]) of 8.6 nM. The half-maximal effective concentration (EC50) on human TLR7 (setting [2]) was 0.39 µM and 0.26 µM. Also, the “LYSA of Active Forms” value in “LYSA solubility study” (setting [3]) is 90 µg/mL.

As to `CC[S@@](=N)(=O)c1nc(N)c2[nH]c(=O)n(Cc3ccc(Cl)cc3)c2n1` (single isomer, unassigned) [Compound 41c-B], in data set [1] (setting [4]), the AUC(0-t) amounted to 0.0558 µM·h, the Cmax amounted to 5.46 nM, the concentration at 0.25 h was determined as 3.41 nM and the concentration at 0.5 h came to 0.75 nM. In data set [1] (setting [4]), this compound displayed a concentration at 1 h of 2.04 nM, a concentration at 2 h of 5.46 nM and a concentration at 4 h of 2.52 nM. For the same compound, the concentration at 7 h in data set [1] (male, Wister-Han, rat, plasma, po, 5 mg/kg, 7 hrs (footnote), read-out: Mean plasma concentration (nM), 7 hrs (row 8*)) is 1.21 nM. The EC50 on human TLR7 (setting [2]) was 0.085 µM. Moreover, the solubility thermodynamic in “LYSA solubility study” (0.05M phosphate buffer pH 6.5, read-out: LYSA of Active Forms) came to 5 µg/mL (≈ 13.6 µM).

Turning to `CCCS(=N)(=O)c1nc(N)c2c(n1)n(Cc1ccccc1)c(=O)n2C(=O)N(C)CCN(C)C(C)=O` (stereo not shown) [Example 25, N-[2-[Acetyl(methyl)amino]ethyl]-6-amino-9-benzyl-N-methyl-8-oxo-2-(propylsulfonimidoyl)purine-7-carboxamide], the “Ratio (EC50(prodrug)/EC50(active form))” value at human TLR7 stood at 372.3. Moreover, at human TLR7 (setting [5]), the EC50 stood at 24.2 µM. For the same compound, the solubility thermodynamic in the data set “LYSA solubility study” (setting [6]) is more than 670 µg/mL.

For `CCCN(C)C(=O)n1c(=O)n(Cc2ccc(F)cc2)c2nc(S(=N)(=O)CC)nc(N)c21` (single isomer, unassigned) [Example 45-A], at human TLR7 (setting [5]), the concentration giving a half-maximal response (EC50) is 153 µM. Further, the solubility thermodynamic in the data set “LYSA solubility study” (setting [6]) was more than 560 µg/mL.

On to `CCCS(=N)(=O)c1nc(N)c2c(n1)n(Cc1ccccc1)c(=O)n2C(=O)N(C)CCC(=O)OC(C)(C)C` (stereo not shown) [Example 16, tert-Butyl 3-[[6-amino-9-benzyl-8-oxo-2-(propylsulfonimidoyl)purine-7-carbonyl]-methyl-amino]propanoate], for which, on human TLR7, the “Ratio (EC50(prodrug)/EC50(active form))” value came out at 493.8. Besides, the EC50 on human TLR7 (setting [5]) turned out to be 32.1 µM. Further, in “LYSA solubility study” (setting [6]), the solubility thermodynamic is 205 µg/mL (≈ 386 µM).

On to `CCN(C)C(=O)n1c(=O)n(Cc2ccc(Br)cc2)c2nc(S(=N)(=O)CC)nc(N)c21` (single isomer, unassigned) [Example 48-A], for which, on human TLR7 (setting [5]), the EC50 was 18.3 µM. The solubility thermodynamic in the data set “LYSA solubility study” (setting [6]) is 305 µg/mL (≈ 614 µM).

In the case of `CCCS(=N)(=O)c1nc(N)c2c(n1)n(Cc1ccccc1)c(=O)n2C(=O)N(C)CCC(=O)OCC` (stereo not shown) [Example 15, Ethyl 3-[[6-amino-9-benzyl-8-oxo-2-(propylsulfonimidoyl)purine-7-carbonyl]-methyl-amino]propanoate], the “Ratio (EC50(prodrug)/EC50(active form))” value at human TLR7 is reported as 7600. Also, at human TLR7 (setting [5]), the EC50 turned out to be 494 µM. In addition, the solubility thermodynamic in the data set “LYSA solubility study” (setting [6]) came out at 405 µg/mL (≈ 804 µM).

Consider `CCCS(=N)(=O)c1nc(N)c2c(n1)n(Cc1ccccc1)c(=O)n2C(=O)N(CC)CCOC` (stereo not shown) [Example 5, 6-Amino-9-benzyl-N-ethyl-N-(2-methoxyethyl)-8-oxo-2-(propylsulfonimidoyl)purine-7-carboxamide], for which the “Ratio (EC50(prodrug)/EC50(active form))” value at human TLR7 was 630.8. For the same compound, the EC50 on human TLR7 (setting [5]) amounted to 41 µM. In addition, the solubility thermodynamic in the data set “LYSA solubility study” (setting [6]) is more than 595 µg/mL.

For the compound `CCCS(=N)(=O)c1nc(N)c2c(n1)n(Cc1ccccc1)c(=O)n2C(=O)N(C)CCOC` (single isomer, unassigned) [Example 2-A], the “Ratio (EC50(prodrug)/EC50(active form))” value at human TLR7 amounted to 43.0. In addition, the EC50 at human TLR7 (setting [5]) worked out at 3.7 µM. In addition, the solubility thermodynamic in “LYSA solubility study” (setting [6]) is more than 600 µg/mL.

On to `CCCN(CC)C(=O)n1c(=O)n(Cc2ccccc2)c2nc(S(=N)(=O)CCC)nc(N)c21` (stereo not shown) [Example 3, 6-Amino-9-benzyl-N-ethyl-8-oxo-N-propyl-2-(propylsulfonimidoyl)purine-7-carboxamide], for which, at human TLR7 (setting [5]), the EC50 came to 15.1 µM. Also, the solubility thermodynamic in the data set “LYSA solubility study” (setting [6]) is 240 µg/mL (≈ 522 µM).

For the compound `CCCN(C)C(=O)n1c(=O)n(Cc2ccccc2)c2nc(S(=N)(=O)CCC)nc(N)c21` (single isomer, unassigned) [Example 1-A], the “Ratio (EC50(prodrug)/EC50(active form))” value on human TLR7 worked out at 634.3. Further, the half-maximal effective concentration (EC50) at human TLR7 (setting [5]) was 42.5 µM. In “LYSA solubility study” (setting [6]), the solubility thermodynamic worked out at 315 µg/mL (≈ 707 µM).

With `CCCS(=N)(=O)c1nc(N)c2c(n1)n(Cc1ccccc1)c(=O)n2C(=O)N(C)CCCOC` (stereo not shown) [Example 12, 6-Amino-9-benzyl-N-(3-methoxypropyl)-N-methyl-8-oxo-2-(propylsulfonimidoyl)purine-7-carboxamide], the “Ratio (EC50(prodrug)/EC50(active form))” value at human TLR7 was 675.4. In addition, the EC50 on human TLR7 (setting [5]) turned out to be 43.9 µM. Moreover, the solubility thermodynamic in “LYSA solubility study” (setting [6]) was 120 µg/mL (≈ 252 µM).

Consider `CCN(C)C(=O)n1c(=O)n(Cc2ccc(F)cc2)c2nc(S(=N)(=O)CC)nc(N)c21` (single isomer, unassigned) [Example 46-B], for which the half-maximal effective concentration (EC50) at human TLR7 (setting [5]) amounted to 45.7 µM. Besides, the “LYSA of Prodrugs” value in the data set “LYSA solubility study” (setting [3]) was more than 580 µg/mL.

For the origin of these results see patent US10233184B2, “7-substituted sulfonimidoylpurinone compounds and derivatives for the treatment and prophylaxis of virus infection” (Hoffmann-La Roche Inc., priority 2016, dated 2019).
